This assay addresses T1, recombinant human Estrogen Receptor alpha ligand binding domain, residues 307-554 (ER alpha-LBD (GST)) (Homo sapiens, UniProt P03372).
T1 construct: made in house
T1 sequence (P03372 307-554): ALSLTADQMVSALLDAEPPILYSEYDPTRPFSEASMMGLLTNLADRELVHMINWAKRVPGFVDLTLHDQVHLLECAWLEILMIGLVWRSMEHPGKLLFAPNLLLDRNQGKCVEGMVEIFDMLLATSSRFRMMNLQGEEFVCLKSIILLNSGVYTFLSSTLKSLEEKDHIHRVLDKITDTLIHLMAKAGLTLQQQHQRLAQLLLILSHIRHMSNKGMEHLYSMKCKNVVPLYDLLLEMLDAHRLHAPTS
Kind of assay: ERα binding assay (LanthaScreen TR-FRET competition). The settings on record: TR-FRET competition with Fluormone ES2 tracer, 4 hours at room temperature; single experiment or average of two or more. For orientation: Time-resolved FRET reads energy transfer from a long-lived donor to a nearby acceptor.

Each structure is given as a SMILES string.

On to `Cc1ncsc1-c1ccc(CNC(=O)[C@@H]2C[C@@H](O)CN2C(=O)[C@@H](NC(=O)COCCCOCCOc2ccc([C@@H]3c4[nH]c5ccccc5c4C[C@@H](C)N3CC(F)F)nc2)C(C)(C)C)cc1` [Example 26, (2S,4R)-1-((S)-2-(2-(3-(2-((6-((1S,3R)-2-(2,2-Difluoroethyl)-3-methyl-2,3,4,9-tetrahydro-1H-pyrido[3,4-b]indol-1-yl)pyridin-3-yl)oxy)ethoxy)propoxy)acetamido)-3,3-dimethylbutanoyl)-4-hydroxy-N-(4-(4-methylthiazol-5-yl)benzyl)pyrrolidine-2-carboxamide], for which the IC50 (usually the midpoint of a concentration-inhibition curve) is 25 nM. Next, `Cc1ncsc1-c1ccc([C@H](C)NC(=O)[C@@H]2C[C@@H](O)CN2C(=O)[C@@H](NC(=O)COCCCCCOc2cc(F)c([C@@H]3c4[nH]c5ccccc5c4C[C@@H](C)N3CC(C)(C)F)c(F)c2)C(C)(C)C)cc1` [Example 28, (2S,4R)-1-((S)-2-(2-((5-(3,5-Difluoro-4-((1R,3R)-2-(2-fluoro-2-methylpropyl)-3-methyl-2,3,4,9-tetrahydro-1H-pyrido[3,4-b]indol-1-yl)phenoxy)pentyl)oxy)acetamido)-3,3-dimethylbutanoyl)-4-hydroxy-N—((S)-1-(4-(4-methylthiazol-5-yl)phenyl)ethyl)pyrrolidine-2-carboxamide]: 0.8 nM. Next, `COC(=O)[C@@H](C)CN1[C@H](c2c(F)cc(OCCOCCOCCOCC(=O)N[C@H](C(=O)N3C[C@H](O)C[C@H]3C(=O)NCc3ccc(-c4scnc4C)cc3)C(C)(C)C)cc2F)c2[nH]c3ccccc3c2C[C@H]1C` [Example 29]: 5.9 nM; `Cc1ncsc1-c1ccc(CNC(=O)[C@@H]2C[C@@H](O)CN2C(=O)[C@@H](NC(=O)CCCCCCCCCCOc2cc(F)c([C@@H]3c4[nH]c5ccccc5c4C[C@@H](C)N3CC(C)(C)F)c(F)c2)C(C)(C)C)cc1` [Example 32, (2S,4R)-1-((S)-2-(11-(3,5-Difluoro-4-((1R,3R)-2-(2-fluoro-2-methylpropyl)-3-methyl-2,3,4,9-tetrahydro-1H-pyrido[3,4-b]indol-1-yl)phenoxy)undecanamido)-3,3-dimethylbutanoyl)-4-hydroxy-N-(4-(4-methylthiazol-5-yl)benzyl)pyrrolidine-2-carboxamide]: 2.3 nM; `Cc1ncsc1-c1ccc(CNC(=O)[C@@H]2C[C@@H](OC(=O)[C@@H]3CCCN3)CN2C(=O)[C@@H](NC(=O)CCCCCCCCCCOc2cc(F)c([C@@H]3c4[nH]c5ccccc5c4C[C@@H](C)N3CC(C)(C)F)c(F)c2)C(C)(C)C)cc1` [Example 33, (3R,5S)-1-((S)-2-(11-(3,5-Difluoro-4-((1R,3R)-2-(2-fluoro-2-methylpropyl)-3-methyl-2,3,4,9-tetrahydro-1H-pyrido[3,4-b]indol-1-yl)phenoxy)undecanamido)-3,3-dimethylbutanoyl)-5-((4-(4-methylthiazol-5-yl)benzyl)carbamoyl)pyrrolidin-3-yl L-prolinate]: 8.9 nM. `CC(=O)O[C@@H]1C[C@@H](C(=O)NCc2ccc(-c3scnc3C)cc2)N(C(=O)[C@@H](NC(=O)COCCOCCOCCOc2cc(F)c([C@@H]3c4[nH]c5ccccc5c4C[C@@H](C)N3CC(C)(C)F)c(F)c2)C(C)(C)C)C1` [Example 34, (3R,5S)-1-((S)-2-(tert-Butyl)-14-(3,5-difluoro-4-((1R,3R)-2-(2-fluoro-2-methylpropyl)-3-methyl-2,3,4,9-tetrahydro-1H-pyrido[3,4-b]indol-1-yl)phenoxy)-4-oxo-6,9,12-trioxa-3-azatetradecanoyl)-5-((4-(4-methylthiazol-5-yl)benzyl)carbamoyl)pyrrolidin-3-yl Acetate]: the IC50 came to 0.9 nM. As to `Cc1ncsc1-c1ccc(CNC(=O)[C@@H]2C[C@@H](O)CN2C(=O)[C@@H](NC(=O)COCCOCCOCCOCCOc2cc(F)c([C@@H]3c4[nH]c5ccccc5c4C[C@@H](C)N3CC(C)(C)F)c(F)c2)C(C)(C)C)cc1` [Example 37, (2S,4R)-1-((S)-2-(tert-Butyl)-17-(3,5-difluoro-4-((1R,3R)-2-(2-fluoro-2-methylpropyl)-3-methyl-2,3,4,9-tetrahydro-1H-pyrido[3,4-b]indol-1-yl)phenoxy)-4-oxo-6,9,12,15-tetraoxa-3-azaheptadecanoyl)-4-hydroxy-N-(4-(4-methylthiazol-5-yl)benzyl)pyrrolidine-2-carboxamide], the IC50 amounted to 6.4 nM.

For `Cc1ncsc1-c1ccc(CNC(=O)C2CC(O)CN2C(=O)C(NC(=O)COCCOc2cc(F)c(C3c4[nH]c5ccccc5c4CC(C)N3CC(C)(C)F)c(F)c2)C(C)(C)C)cc1` [Example 40, (2S,4R)-1-((S)-2-(2-(2-(3,5-Difluoro-4-((1R,3R)-2-(2-fluoro-2-methylpropyl)-3-methyl-2,3,49-tetrahydro-1H-pyrido[3,4-b]indol-1-yl)phenoxy)ethoxy)acetamido)-3,3-dimethylbutanoyl)-4-hydroxy-N-(4-(4-methylthiazol-5-yl)benzyl)pyrrolidine-2-carboxamide], the concentration for half-maximal inhibition (IC50) is 1.3 nM. With `Cc1ncsc1-c1ccc(CNC(=O)[C@@H]2C[C@@H](O)CN2C(=O)[C@@H](NC(=O)COCCCCCN(CCOc2cc(F)c([C@@H]3c4[nH]c5ccccc5c4C[C@@H](C)N3CC(C)(C)F)c(F)c2)C(=O)OCc2ccccc2)C(C)(C)C)cc1` [Example 45, Benzyl (2-(3,5-difluoro-4-((1R,3R)-2-(2-fluoro-2-methylpropyl)-3-methyl-2,3,4,9-tetrahydro-1H-pyrido[3,4-b]indol-1-yl)phenoxy)ethyl)(5-(2-(((S)-1-((2S,4R)-4-hydroxy-2-((4-(4-methylthiazol-5-yl)benzyl)carbamoyl)pyrrolidin-1-yl)-3,3-dimethyl-1-oxobutan-2-yl)amino)-2-oxoethoxy)pentyl)carbamate], the 50% inhibitory concentration (IC50) stood at 1.2 nM.

For the compound `Cc1ncsc1-c1ccc(CNC(=O)[C@@H]2C[C@@H](O)CN2C(=O)[C@@H](NC(=O)COCCCC2CN(CCOc3cc(F)c([C@@H]4c5[nH]c6ccccc6c5C[C@@H](C)N4CC(C)(C)F)c(F)c3)C2)C(C)(C)C)cc1` [Example 47, (2S,4R)-1-((S)-2-(2-(3-(1-(2-(3,5-difluoro-4-((1R,3R)-2-(2-fluoro-2-methylpropyl)-3-methyl-2,3,4,9-tetrahydro-1H-pyrido[3,4-b]indol-1-yl)phenoxy)ethyl)azetidin-3-yl)propoxy)acetamido)-3,3-dimethylbutanoyl)-4-hydroxy-N-(4-(4-methylthiazol-5-yl)benzyl)pyrrolidine-2-carboxamide], the IC50 came out at 0.7 nM.

`Cc1ncsc1-c1ccc(CNC(=O)[C@@H]2C[C@@H](O)CN2C(=O)[C@@H](NC(=O)COCCCCCNCCOc2cc(F)c([C@@H]3c4[nH]c5ccccc5c4C[C@@H](C)N3CC(C)(C)F)c(F)c2)C(C)(C)C)cc1` [Example 48, (2S,4R)-1-((S)-2-(2-((5-((2-(3,5-difluoro-4-((1R,3R)-2-(2-fluoro-2-methylpropyl)-3-methyl-2,3,4,9-tetrahydro-1H-pyrido[3,4-b]indol-1-yl)phenoxy)ethyl)amino)pentyl)oxy)acetamido)-3,3-dimethylbutanoyl)-4-hydroxy-N-(4-(4-methylthiazol-5-yl)benzyl)pyrrolidine-2-carboxamide]: the IC50 was determined as 1 nM.

(Values after patent US10519152B2, “Compounds and their use in treating cancer” (AstraZeneca AB, priority 2017, dated 2019).)
